Earlier results as cited in US7807833B2, “Method for total synthesis of ecteinascidins and intermediate compounds thereof” (Japan Science and Technology Agency, priority 2002, dated 2010).
pIC50: −log10 of the molar value.

Tested on: cancer cells

COc1cc2c(cc1O)CCN[C@]21CS[C@@H]2c3c(OC(C)=O)c(C)c4c(c3[C@H](COC1=O)N1[C@@H]2[C@H]2c3c(cc(C)c(OC)c3O)C[C@@H]([C@@H]1O)N2C)OCO4 [Et 743, ecteinascidin 743]
pIC50 (background statement, cell lines not named, read-out: IC50, depressing the proliferation of cancer cells): 9.00 to 10.00 | times more potent than Toxol, Camptotesin, Adriamycin or Mitomycin in depressing the proliferation of cancer cells (relative to currently used carcinostatic agents): 10 to 100 times

COc1c(C)cc2c(c1O)[C@@H]1[C@@H]3Cc4c(OC(C)=O)c(C)c5c(c4[C@H](CN4C(=O)c6ccccc6C4=O)N3[C@@H](C#N)[C@H](C2)N1C)OCO5 [phthalascidin]
antineoplastic activity compared with ET 743 (qualitative background statement): same activity to ET 743
